For 46 molecules, Ki results are on record in patent publication EP2140864A2 (H. Lundbeck A/S, priority 2001, dated 2002).

One assay concerns the target T1, human GAL3 receptor (Homo sapiens, UniProt O60755).
T1 construct: expressed in transfected cells
T1 sequence (O60755 1-368): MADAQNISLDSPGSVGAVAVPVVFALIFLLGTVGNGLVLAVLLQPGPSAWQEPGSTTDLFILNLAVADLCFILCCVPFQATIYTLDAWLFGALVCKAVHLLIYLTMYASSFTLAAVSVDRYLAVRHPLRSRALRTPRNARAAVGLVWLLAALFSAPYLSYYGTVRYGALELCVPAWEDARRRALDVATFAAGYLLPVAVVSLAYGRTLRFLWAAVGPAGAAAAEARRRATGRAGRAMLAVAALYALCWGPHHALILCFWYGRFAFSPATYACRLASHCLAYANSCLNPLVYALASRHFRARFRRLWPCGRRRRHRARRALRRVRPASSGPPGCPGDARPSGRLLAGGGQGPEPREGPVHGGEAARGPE
The assay is described as follows: Radioligand binding at cloned human GAL3 receptor. Particulars: indolones, cloned human receptor; read-out: Ki GalR3. As to the method:
The present invention provides for a method of determining the binding affinity of a GAL3 antagonist, wherein the GAL3 antagonist is dissolved in a "suitable solvent". A "suitable solvent" means one which permits the measurement of binding affinity of the GAL3 antagonist to the human GAL3 receptor at concentrations less than 1 µM, preferably less than 100 nM. Examples of solvents include, but are not limited to, DMSO, ethanol, N,N-dimethylacetamide, or water. For indolones, the preferred solvent is 3% DMSO (final concentration in the assay). For pyrimidines, the preferred solvent is 1% ethanol/0.09% polypuronic acid F-127 (final concentration in the assay). For any other type of compounds, the preferred solvent is the solvent which permits the measurement of binding affinity of a GAL3 antagonist at the lowest concentration. Once a suitable solvent is ascertained for the binding assay of the human GAL3 receptor, the same solvent is used in assays to determine the binding affinity at the GAL1 receptor, the serotonin transporter, the norepinephrine transporter, and the dopamine transporter. A solvent of 0.4% DMSO is used in the central monoamine oxidase enzyme assay.
The binding properties of the pyrimidines of the present invention were evaluated at the cloned human galanin receptors, GAL1, GAL2, and GAL3, using protocols described herein.
The binding properties of the indolones of the present invention were evaluated at the cloned human galanin receptors, GAL1, GAL2, and GAL3, using protocols described herein.
LM(tk-) cells were stably transfected with the human GAL1 or GAL3 receptor. CHO cells were stably transfected with the human GAL2 receptor.
cDNAs for the human and rat GAL1, and human and rat GAL3 receptors were transfected with a G-418 resistant gene into the mouse fibroblast LM(tk-) cell line by a calcium phosphate transfection method (Cullen, 1987). Stably transfected cells were selected with G-418. Human and rat GAL2 receptors were similarly transfected into CHO cells.
Membranes were harvested from stably transfected LM(tk-) cells. Adherent cells were washed twice in ice-cold phosphate buffered saline (138 mM NaCl, 8.1 mM Na2HPO4, 2.5 mM KCl, 1.2 mM KH2PO4, 0.9 mM CaCl2, 0.5 mM MgCl2, pH 7.4) and lysed by sonication in ice-cold sonication buffer (20 mM Tris-HCl, 5 mM EDTA, pH 7.7). Large particles and debris were cleared by low speed centrifugation (200 x g, 5 min, 4°C). Membranes were collected from the supernatant fraction by centrifugation (32,000 x g, 18 min, 4°C), washed with ice-cold hypotonic buffer, and collected again by centrifugation (32,000 x g, 18 min, 4°C). The final membrane pellet was resuspended by sonication into a small volume of ice-cold binding buffer (-1 ml for every 5 plates: 10 mM NaCl, 20 mM HEPES, 0.22 mM KH2PO4, 1.26 mM CaCl2, 0.81 mM MgSO4, pH 7.4). Protein concentration was measured by the Bradford method (Bradford, 1976) using Bio-Rad Reagent, with bovine serum albumin as a standard. Membranes were held on ice for up to one hour and used fresh, or flash frozen and stored in liquid nitrogen. Membranes were prepared similarly from CHO cells.
Galanin Recentors: Binding assays were performed according to the following published methods: human GAL3 (PCT International Publication No. WO 98/15570), human GAL1 (PCT International Publication No. WO 95/2260), human GAL2 (PCT International Publication No. WO 97/26853).
Binding data were analyzed using nonlinear regression and statistical techniques available in the GraphPAD Prism package (San Diego, CA). Enzymatic assay data were derived from a standard curve of reference compound data.
As for `O=C1/C(=N\c2cccc(C(F)(F)F)c2)c2ccccc2N1c1ccc(O)cc1` [Example 310, (3Z)-1-(4-HYDROXYPHENYL)-3-{[3-(TRIFLUOROMETHYL)PHENYL]IMINO}-1,3-DIHYDRO-2H-INDOL-2-ONE], the Ki stood at 126 nM.

With `O=C1/C(=N\c2cccc(C(F)(F)F)c2)c2cc(-c3ccccc3)ccc2N1c1ccccc1` [Example 308], the Ki is 98 nM.

Turning to `O=C1/C(=N\c2cccc(Cl)c2)c2ccccc2N1c1ccsc1` [Example 270, (3Z)-3-[(3-CHLOROPHENYL)IMINO]-1-(3-THIENYL)-1,3-DIHYDRO-2H-INDOL-2-ONE], the inhibitory constant (Ki) is 42 nM.

In the case of `O=C1C(=Nc2ccc(Cl)nc2)c2ccccc2N1c1ccccc1` (mixture of isomers) [Example 113], the Ki was determined as 136 nM.

On to `O=C1/C(=N\c2cccc(C(F)(F)F)c2)c2ccccc2N1C1CCOCC1` [Example 300, (3Z)-1-TETRAHYDRO-2H-PYRAN-4-YL-3-{[3-(TRIFLUOROMETHYL)PHENYL]IMINO}-1,3-DIHYDRO-2H-INDOL-2-ONE], for which the Ki turned out to be 742 nM.

As for `N#CCc1ccc(/N=C2\C(=O)N(c3ccccc3)c3ccccc32)cc1` [Example 297, (4-{[(3Z)-2-OXO-1-PHENYL-1,2-DIHYDRO-3H-INDOL-3-YLIDENE]AMINO}PHENYL)ACETONITRILE], the inhibitory constant (Ki) was found to be 226 nM.

On to `O=C1/C(=N\c2ccc(Cl)c(Cl)c2)c2ccccc2N1Cc1ccccn1` [Example 254], for which the Ki was determined as 64 nM.

On to `O=C1/C(=N\c2ccc3c(c2)OC(F)(F)O3)c2ccccc2N1c1ccccc1` [Example 298, (3Z)-3-[(2,2-DIFLUORO-1,3-BENZODIOXOL-5-YL)IMINO]-1-PHENYL-1,3-DIHYDRO-2H-INDOL-2-ONE], for which the Ki was found to be 22 nM.

Turning to `CCn1c2ccccc2c2cc(/N=C3\C(=O)N(c4ccccc4)c4ccccc43)ccc21` [Example 281, (3Z)-3-[(9-ETHYL-9H-CARBAZOL-3-YL)IMINO]-1-PHENYL-1,3-DIHYDRO-2H-INDOL-2-ONE], the Ki turned out to be 150 nM.

On to `O=C1/C(=N\c2ccc(Cl)c(Cl)c2)c2ccccc2N1c1cc(Cl)cc(Cl)c1` [Example 257, (3Z)-1-(3,5-DICHLOROPHENYL)-3-[(3,4-DICHLOROPHENYL)IMINO]-1,3-DIHYDRO-2H-INDOL-2-ONE], for which the inhibition constant Ki turned out to be 33 nM.

For `O=C1/C(=N\c2ccc(Cl)c(Cl)c2)c2ccccc2N1Cc1cccnc1` [Example 311], the inhibition constant Ki is 32 nM.

Consider `O=C1/C(=N\c2cccc(C(F)(F)F)c2)c2ccccc2N1c1ccc(-c2ccccc2)cc1` [Example 309, (3Z)-1-[1,1'-BIPHENYL]-4-YL-3-{[3-(TRIFLUOROMETHYL)PHENYL]IMINO}-1,3-DIHYDRO-2H-INDOL-2-ONE], for which the Ki stood at 224 nM.

The assay is the same for the next values; noted with them: pyrimidines, cloned human receptor; read-out: Ki GalR3.
With `Cc1ccc(Nc2cc(N(C)C)nc(N3CCN(S(=O)(=O)c4ccc(C)cc4)CC3)n2)cc1` [Example 84], the Ki came to 261 nM.

As to `COc1ccc(OC)c(Nc2cc(N(C)C)nc(N3CCN(c4ccccn4)CC3)n2)c1` [Example 201], the Ki worked out at 566 nM.

For the molecule `CN(C)c1cc(Nc2cccc(Br)c2)nc(N2CCN(c3ccccn3)CC2)n1` [Example 243], the inhibition constant (Ki) worked out at 46 nM.

As to `Cc1ccc(Nc2cc(N(C)C)nc(N3CCN(c4cccc(C)c4)CC3)n2)cc1` [Example 86], the inhibitory constant (Ki) came to 227 nM.

`Cc1ccc(Nc2cc(N(C)C)nc(NCCc3cccs3)n2)cc1` [Example 237]: the inhibitory constant (Ki) worked out at 404 nM.

Turning to `Cc1ccc(Nc2cc(N3CCCCC3)nc(N3CCN(c4cccc(C(F)(F)F)n4)CC3)n2)cc1` [Example 33], the inhibition constant (Ki) came out at 181 nM.

For the molecule `COc1cccc(Nc2cc(N(C)C)nc(NCCc3ccccc3)n2)c1` [Example 247], the Ki was 195 nM.

Turning to `COc1ccc(OC)c(Nc2cc(N(C)C)nc(N3CCN(Cc4ccccc4)CC3)n2)c1` [Example 227], the Ki came out at 600 nM.

For the molecule `Cc1ccc(Nc2cc(N(C)C)nc(N3CCN(Cc4cccs4)CC3)n2)cc1` [Example 174], the Ki was 325 nM.

With `CN(C)c1cc(Nc2ccc(C(F)(F)F)cc2)nc(N2CCN(Cc3ccccc3)CC2)n1` [Example 229], the inhibitory constant (Ki) was determined as 37 nM.

For the molecule `Cc1ccc(Nc2cc(N3CCCCC3)nc(N3Cc4cccc5cccc(c45)C3)n2)cc1` [Example 43], the inhibition constant (Ki) came out at 107 nM.

For the molecule `COc1cccc(CCNc2nc(Nc3ccc(C)cc3)cc(N(C)C)n2)c1` [Example 149], the Ki stood at 138 nM.

Regarding `CCCCCCc1ccc(Nc2cc(N(C)C)nc(N3CCN(c4ccccn4)CC3)n2)cc1` [Example 187], the Ki stood at 19 nM.

`Cc1ccc(Nc2cc(N3CCCCC3)nc(Nc3ccccc3)n2)cc1` [Example 3]: the inhibition constant Ki worked out at 163 nM.

As to `COc1ccc(CCNc2nc(Nc3ccc(C)cc3)cc(N(C)C)n2)cc1` [Example 232], the Ki came out at 155 nM.

Turning to `CN(C)c1cc(NC23CC4CC(CC(C4)C2)C3)nc(N2CCN(Cc3ccccc3)CC2)n1` [Example 138], the Ki worked out at 52 nM.

`CN(C)c1cc(Nc2cnc3ccccc3c2)nc(N2CCN(c3ccccn3)CC2)n1` [Example 132]: the Ki was 618 nM.

Take `COc1cccc(Nc2cc(N(C)C)nc(N3CCN(Cc4ccncc4)CC3)n2)c1` [Example 147]: the Ki worked out at 640 nM.

Regarding `CN(C)c1cc(Nc2ccccc2C(C)(C)C)nc(N2CCN(c3ccccn3)CC2)n1` [Example 212], the Ki is 231 nM.

On to `COc1cccc(Nc2cc(N(C)C)nc(N3CCN(Cc4cccs4)CC3)n2)c1` [Example 165], for which the Ki is 139 nM.

`CN(C)c1cc(Nc2cccc(Cc3ccccc3)c2)nc(N2CCN(c3ccccn3)CC2)n1` [Example 216]: the inhibitory constant (Ki) came to 50 nM.

With `CN(C)c1cc(Nc2cccc(OCc3ccccc3)c2)nc(N2CCN(Cc3ccccc3)CC2)n1` [Example 228], the Ki is 32 nM.

As to `CN(C)c1cc(Nc2ccc(SC(F)(F)F)c(Cl)c2)nc(N2CCN(c3ccccn3)CC2)n1` [Example 134], the inhibition constant (Ki) was determined as 25 nM.

`CN(C)c1cc(NC2CCc3ccccc3C2)nc(N2CCN(Cc3ccccc3)CC2)n1` (stereo not shown) [Example 173]: the inhibition constant (Ki) amounted to 117 nM.

Regarding `CC(C)c1cccc(Nc2cc(N(C)C)nc(N3CCN(c4ccccn4)CC3)n2)c1` [Example 191], the inhibition constant Ki came to 75 nM.

In the case of `Cc1ccc(Nc2cc(N(C)C)nc(N3CCN(c4cccc(OCc5ccccc5)c4)CC3)n2)cc1` [Example 131], the Ki turned out to be 20 nM.

Turning to `Cc1ccc(Nc2cc(N3CCCCC3)nc(N3CCN(Cc4ccccc4)CC3)n2)cc1` [Example 23], the Ki amounted to 60 nM.

`COc1cccc(Nc2cc(N(C)C)nc(N3CCN(CC4CCCO4)CC3)n2)c1` (stereo not shown) [Example 233]: the Ki amounted to 869 nM.

As to `CN(C)c1cc(Nc2ccc(Br)c(C(F)(F)F)c2)nc(N2CCN(c3ccccn3)CC2)n1` [Example 133], the inhibitory constant (Ki) was determined as 60 nM.

Turning to `C[C@H]1[C@H](Nc2cc(N(C)C)nc(N3CCN(Cc4ccccc4)CC3)n2)C[C@@H]2C[C@@H]1C2(C)C` [Example 139], the inhibitory constant (Ki) was found to be 47 nM.

As to `CN(C)c1cc(Nc2ccc(Cl)cc2Cl)nc(N2CCN(c3ccccn3)CC2)n1` [Example 205], the Ki was determined as 193 nM.

On to `Cc1ccc(Nc2cc(N(C)C)nc(N(C)CCc3ccccn3)n2)cc1` [Example 161], for which the inhibition constant Ki came to 114 nM.

As to `CN(C)c1cc(Nc2ccc3c(c2)CCC3)nc(N2CCN(c3ccccn3)CC2)n1` [Example 123], the inhibitory constant (Ki) worked out at 61 nM.

As for `CN(C)c1cc(Nc2ccc(Oc3ccccc3)cc2)nc(Nc2ccccc2)n1` [Example 64], the Ki turned out to be 572 nM.
